Assay results reported in patent publication US6399562B2, “Solvent compositions” (Ausimont S.p.A., priority 2000, dated 2002).
Read-outs that look alike come from different tables or passages of the source. One block for each molecule: values may come before it.

Legend:
[1] = solubility of propellants in solvent compositions for aerosol applications; format: physicochemical
Protocol: The solubility of HFC 134a, HFC 227ea and HFC 236ea with some solvent compositions for aerosol applications for the cleaning of electronic components has been studied. The solvent composition is placed in a glass test tube having thick walls, resistant to high pressures, and closed at an end by a metal valve. After cooling, the propellant is fed to the test tube and mixed with the solvent mixture. The system is introduced in a thermostatic bath and heated up to 0°, 25° and 50° C. The complete solubility of the propellant in the solvent composition used for the test has been visually observed. The solubility results of the used propellants in the solvent compositions, at the above three different temperatures, are reported in Table 7.

[2] = Removal of oily products from printed circuits, oil (1); conditions: 5 minutes of dipping
Protocol: (§1) The removal capability of oily products from printed circuits has been checked according to the following procedure:
(§2) a known amount of an oily product is uniformly spread on the surface of a printed circuit having 35×9 mm sizes; 0.100 g of oil are placed only on a single surface of the circuit, then the article is dipped into the solution to be tested.
(§3) After 5 minutes of dipping, the circuit is allowed to dry for additional 5 minutes at room temperature so as to remove the solvent traces and then is weighed again on an analytical balance.
[…] The compositions are placed in a vessel equipped with a condenser which recovers the vapour of the boiling solution.
(§4) In all the tests 30 ml of the solvent solution have been used.
(§5) The results are reported in Table 6 and are expressed as removed oil percentage.

[3] = Removal of oily products from printed circuits, oil (2); conditions: 5 minutes of dipping
Protocol: as §1, §2, §3
(§6) Tests of the solvent mixtures are carried out close to the boiling temperature. The compositions are placed in a vessel equipped with a condenser which recovers the vapour of the boiling solution.
as §4, §5

[4] = Removal of oily products from printed circuits, oil (3); conditions: 5 minutes of dipping
Protocol: as §1, §2, §3, §6, §4, §5

[5] = Removal of oily products from printed circuits, oil (4); conditions: 5 minutes of dipping
Protocol: as §1, §2, §3, §6, §4, §5

rat [6] = assay: Acute toxicity in rat by os, LD50
rat [7] = assay: Acute toxicity in rat by inhalation, LC50
[8] = chemical-physical properties of the hydrofluoropolyether
[9] = background statement; cited from earlier work
[10] = Evaluation of the azeotropic behaviour: boiling temperature at 1.013 bar; format: physicochemical; conditions: pressure of 1.013 absolute bar
Protocol: The mixture of known composition and weight is introduced into a small glass cell, previously evacuated, having an internal volume equal to about 20 cm^3, equipped with metal connections, feeding valve and with a pressure transducer to evaluate the system vapour pressure.
The filling ratio by volume is initially equal to about 0.8% by v.
The temperature is measured close to the equilibrium cell by a thermometer the accuracy of which is equal to +/−0.01° C.; particular attention has been paid so that the external temperature measured in the bath is really the internal one of the cell.
By changing the composition of the mixture it is possible to evaluate possible deviations with respect to the ideality and therefore to identify the azeotropic composition which, as said, will be characterized by an absolute minimum or maximum with respect to the pure components.

[11] = Preliminary studies relating to acute toxicity; format: in vivo

solubility of the propellant in the solvent composition ([1]; in HCF2OCF2CF2OCF2H/Methyl-acetate (75.0) (25.0), propellant 53.2 % by wt, 0 ° C.): S
solubility of the propellant in the solvent composition ([1]; in HCF2OCF2CF2OCF2H/Methyl-acetate (75.0) (25.0), propellant 53.2 % by wt, 25 ° C.): S
solubility of the propellant in the solvent composition ([1]; in HCF2OCF2CF2OCF2H/Methyl-acetate (75.0) (25.0), propellant 53.2 % by wt, 50 ° C.): S
SMILES: FC(C(F)(F)F)C(F)(F)F [HFC 227ea, 1,1,1,2,3,3,3-heptafluoropropane]

SMILES: FC(F)(Cl)C(F)(Cl)Cl [CFC 113, 1,1,2-trichloro-1,2,2-trifluoroethane]
Percentage of removed oil, oil type (1) ([2]; 23 ° C.): 100 % by weight
Percentage of removed oil, oil type (1) ([2]; 47 ° C.): 100 % by weight
Percentage of removed oil, oil type (2) ([3]; 23 ° C.): 99.5 % by weight
Percentage of removed oil, oil type (2) ([3]; 47 ° C.): 100 % by weight
Percentage of removed oil, oil type (3) ([4]; 23 ° C.): 100 % by weight
Percentage of removed oil, oil type (3) ([4]; 47 ° C.): 100 % by weight
Percentage of removed oil, oil type (4) ([5]; 23 ° C.): 100 % by weight
Percentage of removed oil, oil type (4) ([5]; 47 ° C.): 100 % by weight
Acute toxicity in rat by os, LD50 (rat [6]): 43,000 ppmv/4 hours
Acute toxicity in rat by inhalation, LC50 (rat [7]): 50,000 ppmv/4 hours
Isotherm evaporation rate at 20° C. [8]: 1 mg/min
Surface tension at 20° C. [8]: 18.1 dynes/cm
Liquid density at 25° C. [8]: 1.56 g/mL
Evaporation latent heat ([8]; at 1.013 bar): 144 kJ/kg
Flammability in air [8]: non

SMILES: CC(F)(Cl)Cl [HCFC 141b]
flammability [9]: moderately flammable

SMILES: CCCBr [1-Bromo-propane, 1-bromo-propane]
Boiling T of pure Component B [10]: Boiling T = 69.60 °C

Boiling T of pure Component B [10]: Boiling T = 55.78 °C
SMILES: COC(C)=O [Methyl-acetate, methyl-acetate]

SMILES: FC(F)C(F)C(F)(F)F (centres unmarked) [HFC 236ea, 1,1,1,2,3,3-hexafluoropropane]
solubility of the propellant in the solvent composition [1]: S

SMILES: FC(F)OC(F)(F)C(F)(F)OC(F)F [HCF2OCF2CF2OCF2H, 1-difluoromethoxy-1,1,2,2-tetrafluoroethyl difluoromethyl ether]
acute toxicity, biological activity [11]: low biological activity
Acute toxicity in rat by os, LD50 (rat [6]): >5,000 ppmv/4 hours
Acute toxicity in rat by inhalation, LC50 (rat [7]): >32,000 ppmv/4 hours
dehydrofluorination reactions (chemical stability) [8]: does not undergo dehydrofluorination reactions
Isotherm evaporation rate at 20° C. [8]: 0.6 mg/min
Surface tension at 20° C. [8]: 15.5 dynes/cm
Liquid density at 25° C. [8]: 1.60 g/mL
Boiling temperature ([8]; at 1.013 bar): 58.21 °C
Evaporation latent heat ([8]; at 1.013 bar): 139 kJ/kg
Flammability in air [8]: non

solubility of the propellant in the solvent composition ([1]; in HCF2OCF2CF2OCF2H/Bromo-propane (75.0) (25.0), propellant 57.2 % by wt, 0 ° C.): S
solubility of the propellant in the solvent composition ([1]; in HCF2OCF2CF2OCF2H/Bromo-propane (75.0) (25.0), propellant 57.2 % by wt, 25 ° C.): S
solubility of the propellant in the solvent composition ([1]; in HCF2OCF2CF2OCF2H/Bromo-propane (75.0) (25.0), propellant 57.2 % by wt, 50 ° C.): S
solubility of the propellant in the solvent composition ([1]; in HCF2OCF2CF2OCF2H/Isopentane (45.0) (55.0), propellant 51.2 % by wt, 0 ° C.): S
solubility of the propellant in the solvent composition ([1]; in HCF2OCF2CF2OCF2H/Isopentane (45.0) (55.0), propellant 51.2 % by wt, 25 ° C.): S
solubility of the propellant in the solvent composition ([1]; in HCF2OCF2CF2OCF2H/Isopentane (45.0) (55.0), propellant 51.2 % by wt, 50 ° C.): S
solubility of the propellant in the solvent composition ([1]; in HCF2OCF2CF2OCF2H/Methyl-acetate (75.0) (25.0), propellant 51.3 % by wt, 0 ° C.): S
solubility of the propellant in the solvent composition ([1]; in HCF2OCF2CF2OCF2H/Methyl-acetate (75.0) (25.0), propellant 51.3 % by wt, 25 ° C.): S
solubility of the propellant in the solvent composition ([1]; in HCF2OCF2CF2OCF2H/Methyl-acetate (75.0) (25.0), propellant 51.3 % by wt, 50 ° C.): S
SMILES: FCC(F)(F)F [HFC 134a, 1,1,1,2-tetrafluoroethane]
